# Counter-ions that a name gives are not always drawn.
# Target: CDK2 complexed with cyclin A (Homo sapiens, UniProt P24941)
# Assay: Cyclin dependent kinase activity assay, phosphorylation of synthetic peptide PKTPKKAKKLRRR
# Format: biochemical
# Details: 0.1 mM ATP, read-out: CDK 2 Activity*
# Description: (§1) The assay of cyclin dependent kinase activity was determined by monitoring the phosphorylation of a synthetic peptide, PKTPKKAKKLRRR. The assay mixture contained 0.1 mM cold ATP, ^33P-γ-ATP (2000-4000 cpm/μL), 0.1 mM peptide, 1 mM DTT, and 10 mM MgCl2 in 100 mM HEPES buffer pH 7.4. The assay mixture, along with inhibitor and CDK enzyme (0.3-0.4 U/mL; either CDK5 complexed with p25, CDK2 complexed with complexed with cyclin A), was mixed together in a microtiter plate in a final volume of 40 μL, sealed and incubated for 2 hours at 30° C. Following incubation, a 15 μL aliquot was added to a Whatman P81 filtration plate containing 100 μL 0.5% phosphoric acid. This mixture was allowed to stand for 5 minutes prior to filtration on a vacuum manifold. The filter plate was washed with 5 successive additions of 300 μL 0.5% phosphoric acid. The filtration plate was air dried for 10 minutes before sealing the bottom. After addition of scintillation fluid to the sealed plate, phosphorylated peptide was quantified in a scintillation counter.
row,Compound,IC50 [nM]
1,"NC(=S)N/N=C/c1cc(-c2ccc(CO)cc2)ccc1O [Example 10, 5-(4-Hydroxymethylphenyl)salicylaldehyde thiosemicarbazone]",> 5000
2,"Nc1nccc(-c2cc(-c3cccnc3)ccc2O)n1 [Example 63, 2-(2-Amino-pyrimidin-4-yl)-4-pyridin-3-yl-phenol]",> 5000
3,"NC(=S)N/N=C/c1cc(-c2cccc(CO)c2)ccc1O [Example 8, 5-(3-Hydroxymethylphenyl)salicylaldehyde thiosemicarbazone]",> 5000
4,"NC(=S)N/N=C/c1cc(-c2ccc(Cl)s2)ccc1O [Example 35, 5-[2-(5-Chloro-thienyl)]salicylaldehyde thiosemicarbazone]",500 to 2000
5,"Nc1nccc(-c2c(O)ccc3ccccc23)n1 [Example 46, 2-Amino-4-[1-(2-hydroxynaphthyl)]pyrimidine]",> 5000
6,"COc1ccc(-c2ccc(O)c(/C=N/NC(N)=S)c2)cc1F [Example 14, 5-(3-Fluoro-4-methoxyphenyl)salicylaldehyde thiosemicarbazone]",2000 to 5000
7,"Nc1ncc(-c2ccc(O)c(-c3ccnc(N)n3)c2)cn1 [Example 66, 2-(2-Amino-pyrimidin-4-yl)-4-(2-amino-pyrimidin-5-yl)-phenol]",500 to 2000
8,"NC(=O)N/N=C/c1cc(-c2ccccc2)ccc1O [Example 5, 5-Phenylsalicylaldehyde semicarbazone hydrochloride]",500 to 2000
9,"NC(=S)N/N=C/c1cc(Br)ccc1O [Example 2, 5-Bromosalicylaldehyde thiosemicarbazone]",2000 to 5000
10,"Nc1nc(NCCCCCO)cc(-c2cc(-c3ccc(O)cc3)ccc2O)n1 [Example 77, 3-[2-Amino-6-(5-hydroxy-pentylamino)-pyrimidin-4-yl]-biphenyl-4,4′-diol]",< 500
11,"Nc1nc(-c2cc(-c3ccc(O)cc3)ccc2O)cc(N2CCNCC2)n1 [Example 78, 3-(2-Amino-6-piperazin-1-yl-pyrimidin-4-yl)-biphenyl-4,4′-diol]",> 5000
12,"NC(=S)N/N=C/c1cc(-c2cccc(O)c2)ccc1O [Example 20, 5-(3-Hydroxyphenyl)salicylaldehyde thiosemicarbazone]",500 to 2000
13,"COC(=O)/C=C/c1ccc(O)c(/C=N/NC(N)=S)c1 [Example 37, Methyl (3-formyl-4-hydroxy)cinnamate, thiosemicarbazone]",> 5000
14,"NC(=S)N/N=C/c1cc(-c2cccnc2)ccc1O [Example 31, 5-(3-Pyridyl)salicylaldehyde thiosemicarbazone]",500 to 2000
15,"Nc1nccc(-c2cc(-c3ccc[nH]3)ccc2O)n1 [Example 69, 2-(2-Amino-pyrimidin-4-yl)-4-(1H-pyrrol-2-yl)-phenol]",< 500

# Further lines, results first:
row,IC50 [nM],Compound
1,< 500,"NC(=S)N/N=C/c1cc(CCC(=O)O)ccc1O [Example 40, 3-(3-Formyl-4-hydroxyphenyl)propionic acid, thiosemicarbazone]"
2,< 500,"Nc1nccc(-c2cc(-c3ccncc3)ccc2O)n1 [Example 62, 2-(2-Amino-pyrimidin-4-yl)-4-pyridin-4-yl-phenol]"
3,< 500,"Nc1cccc(-c2cc(-c3ccc(O)cc3)ccc2O)n1 [Example 49, 3-(6-Amino-pyridin-2-yl)-biphenyl-4,4′-diol]"
4,< 500,"Nc1cccc(-c2ccc(O)c(-c3ccnc(N)n3)c2)n1 [Example 64, 4-(6-Amino-pyridin-2-yl)-2-(2-amino-pyrimidin-4-yl)-phenol]"
5,< 500,"Nc1nccc(-c2ccc(O)c(-c3ccnc(N)n3)c2)n1 [Example 68, 2,4-Bis-(2-amino-pyrimidin-4-yl)-phenol]"
6,< 500,"Nc1nccc(-c2ccc(O)c(-c3cc(Cl)nc(N)n3)c2)n1 [Example 73, 2-(2-Amino-4-chloro-pyrimidin-6-yl)-4-(2-aminopyrimidin-4-yl)-phenol]"
7,< 500,NC(=S)N/N=C/c1cc2ccc(O)cc2cc1O [Example 43]
8,< 500,"Cc1cc(-c2cc(-c3ccc(O)cc3)ccc2O)nc(N)n1 [Example 47, 3-(2-Amino-6-methyl-pyrimidin-4-yl)-biphenyl-4,4′-diol]"

# Target: CDK5 complexed with p25 (Homo sapiens, UniProt Q00535)
# Sequence (Q00535 whole entry): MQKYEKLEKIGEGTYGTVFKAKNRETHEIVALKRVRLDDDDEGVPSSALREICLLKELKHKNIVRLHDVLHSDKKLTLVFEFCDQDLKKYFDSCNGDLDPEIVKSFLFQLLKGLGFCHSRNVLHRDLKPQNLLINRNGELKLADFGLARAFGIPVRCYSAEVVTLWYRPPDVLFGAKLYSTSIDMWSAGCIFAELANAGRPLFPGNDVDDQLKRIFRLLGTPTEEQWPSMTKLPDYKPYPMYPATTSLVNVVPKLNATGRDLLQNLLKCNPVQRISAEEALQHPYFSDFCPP
# Sequence (Q15078 99-307 partner limits assumed): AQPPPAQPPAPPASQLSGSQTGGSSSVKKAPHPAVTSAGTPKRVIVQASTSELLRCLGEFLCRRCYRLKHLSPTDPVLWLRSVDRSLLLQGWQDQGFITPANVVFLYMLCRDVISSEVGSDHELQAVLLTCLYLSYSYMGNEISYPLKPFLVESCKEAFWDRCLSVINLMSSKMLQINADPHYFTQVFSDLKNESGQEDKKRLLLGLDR
# Assay: as above
# Format: biochemical
# Details: CDK5 complexed with p25, 0.1 mM ATP; read-out: CDK 5 Activity*
# Description: as §1
row,Compound,IC50 [nM]
1,"NC(=S)N/N=C/c1cc(-c2ccc(CO)cc2)ccc1O [Example 10, 5-(4-Hydroxymethylphenyl)salicylaldehyde thiosemicarbazone]",> 5000
2,"Nc1nccc(-c2cc(-c3cccnc3)ccc2O)n1 [Example 63, 2-(2-Amino-pyrimidin-4-yl)-4-pyridin-3-yl-phenol]",< 500
3,"NC(=S)N/N=C/c1cc(-c2cccc(CO)c2)ccc1O [Example 8, 5-(3-Hydroxymethylphenyl)salicylaldehyde thiosemicarbazone]",> 5000
4,"NC(=S)N/N=C/c1cc(-c2ccc(Cl)s2)ccc1O [Example 35, 5-[2-(5-Chloro-thienyl)]salicylaldehyde thiosemicarbazone]",> 5000
5,"Nc1nccc(-c2c(O)ccc3ccccc23)n1 [Example 46, 2-Amino-4-[1-(2-hydroxynaphthyl)]pyrimidine]",2000 to 5000
6,"COc1ccc(-c2ccc(O)c(/C=N/NC(N)=S)c2)cc1F [Example 14, 5-(3-Fluoro-4-methoxyphenyl)salicylaldehyde thiosemicarbazone]",500 to 2000
7,"Nc1ncc(-c2ccc(O)c(-c3ccnc(N)n3)c2)cn1 [Example 66, 2-(2-Amino-pyrimidin-4-yl)-4-(2-amino-pyrimidin-5-yl)-phenol]",500 to 2000
8,"NC(=O)N/N=C/c1cc(-c2ccccc2)ccc1O [Example 5, 5-Phenylsalicylaldehyde semicarbazone hydrochloride]",< 500
9,"NC(=S)N/N=C/c1cc(Br)ccc1O [Example 2, 5-Bromosalicylaldehyde thiosemicarbazone]",500 to 2000
10,"Nc1nc(NCCCCCO)cc(-c2cc(-c3ccc(O)cc3)ccc2O)n1 [Example 77, 3-[2-Amino-6-(5-hydroxy-pentylamino)-pyrimidin-4-yl]-biphenyl-4,4′-diol]",< 500
11,"Nc1nc(-c2cc(-c3ccc(O)cc3)ccc2O)cc(N2CCNCC2)n1 [Example 78, 3-(2-Amino-6-piperazin-1-yl-pyrimidin-4-yl)-biphenyl-4,4′-diol]",< 500
12,"NC(=S)N/N=C/c1cc(-c2cccc(O)c2)ccc1O [Example 20, 5-(3-Hydroxyphenyl)salicylaldehyde thiosemicarbazone]",< 500
13,"COC(=O)/C=C/c1ccc(O)c(/C=N/NC(N)=S)c1 [Example 37, Methyl (3-formyl-4-hydroxy)cinnamate, thiosemicarbazone]",500 to 2000
14,"NC(=S)N/N=C/c1cc(-c2cccnc2)ccc1O [Example 31, 5-(3-Pyridyl)salicylaldehyde thiosemicarbazone]",< 500
15,"Nc1nccc(-c2cc(-c3ccc[nH]3)ccc2O)n1 [Example 69, 2-(2-Amino-pyrimidin-4-yl)-4-(1H-pyrrol-2-yl)-phenol]",< 500

# The remaining lines, values ahead:
row,IC50 [nM],Compound
1,< 500,"NC(=S)N/N=C/c1cc(CCC(=O)O)ccc1O [Example 40, 3-(3-Formyl-4-hydroxyphenyl)propionic acid, thiosemicarbazone]"
2,< 500,"Nc1nccc(-c2cc(-c3ccncc3)ccc2O)n1 [Example 62, 2-(2-Amino-pyrimidin-4-yl)-4-pyridin-4-yl-phenol]"
3,< 500,"Nc1cccc(-c2cc(-c3ccc(O)cc3)ccc2O)n1 [Example 49, 3-(6-Amino-pyridin-2-yl)-biphenyl-4,4′-diol]"
4,< 500,"Nc1cccc(-c2ccc(O)c(-c3ccnc(N)n3)c2)n1 [Example 64, 4-(6-Amino-pyridin-2-yl)-2-(2-amino-pyrimidin-4-yl)-phenol]"
5,< 500,"Nc1nccc(-c2ccc(O)c(-c3ccnc(N)n3)c2)n1 [Example 68, 2,4-Bis-(2-amino-pyrimidin-4-yl)-phenol]"
6,< 500,NC(=S)N/N=C/c1cc2ccc(O)cc2cc1O [Example 43]
7,< 500,"Cc1cc(-c2cc(-c3ccc(O)cc3)ccc2O)nc(N)n1 [Example 47, 3-(2-Amino-6-methyl-pyrimidin-4-yl)-biphenyl-4,4′-diol]"
